# From article PMC11212260, “Next-generation neuropeptide Y receptor small-molecule agonists inhibit mosquito-biting behavior” (Parasites & Vectors, 2024)
# Values joined by “and” are separate entries in the source; they are usually repeats but may differ in a detail not shown here. Identical values can stand only once.
# How the values were obtained:
# [1] = test system: Aedes aegypti (Orlando strain) females; experiment: Biting assay (mouse-in-cage); format: in vivo; set-up: key to Difference between medians: Actual (vs. saline) / Difference between medians: Hodges-Lehmann (vs. saline): differences in percent biting (blood-fed/total females, %); settings: for Percentage of females that freshly blood-fed on an anesthetized mouse: fed 1 μM 48 h prior, 15 min exposure, individual replicates; for effect on biting / blood-feeding from a live host (in words): fed at a dose of 1 μM
# Procedure: Groups of 60–150 females were placed in bucket cages with a diameter of 21.6 cm and height of 16.5 cm (VWR) and fasted with access to water for 24 h prior to feeding. Meals were delivered to females via Glytube membrane feeders as described previously. Meals consisted of 1.5 ml sheep blood (HemoStat Laboratories), saline (400 mM NaHCO3 + dih2O), or saline and test compound. Lyophilized compounds were stored at room temperature until use. High-concentration stocks (30 mM in 100% dimethyl sulfoxide [DMSO]) (Sigma-Aldrich) were stored at −20 °C and diluted in saline immediately prior to feeding. Once prepared, meals and glycerol heating elements were warmed in a 42 °C water bath for 15 min to provide warmth to attract mosquitos to feed. […] Females were allowed 15–20 min to feed to repletion. Abdominal engorgement was scored by eye and confirmed by weighing females to ensure full feeding (Data S1). […] Females were returned to their original cage with a diH2O wick for 48 h prior to behavioral testing. The lethality of each compound was measured by counting the number of dead females in each cage 24 h post-meal.
# This assay was modified from. Females were fed and scored as described above. Forty-eight hours post-meal, females were anesthetized in a 4 °C cold room and aspirated into a petri dish (Thermo Fisher Biosciences) with a randomly assigned color powder (Slice of the Moon; Chameleon Colors) to mark their treatment group. Females were then individually removed from the color powder, placed inside a cage measuring 91 cm × 61 cm × 61 cm (BugDorm), and allowed 2–4 h to recover. Each experiment consisted of a cage with 12–20 females in each treatment group including environmental (non-fed and blood-fed) and vehicle (saline-fed) control groups. The experiment began once an anesthetized mouse was introduced to the center of the cage, and females were allowed 15 min to blood-feed. The mouse was then removed, and the cage was placed at 4 °C to anesthetize females for collection. Females were aspirated into a large glass petri dish (Pyrex) and scored under a dissection microscope (Nikon SMZ1500) for powder color and blood-feeding status. Females were scored as blood-fed if fresh blood was present in the abdomen. Percent biting was calculated as females freshly blood-fed/total females in each respective treatment group.
# [2] = test system: Aedes aegypti (Orlando strain) females; experiment: Host-seeking screening assay (miniport olfactometer); format: in vivo; settings: for Attraction (relative to saline): per-compound value of Fig. 3C; for effect on host-seeking (in words): fed at a dose of 1 μM
# How it was run: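 Fasted Orlando-strain females fed saline meals (400 mM NaHCO3) with 1 mM ATP and test compound at 1 μM final via warmed membrane feeders; lethality counted 24 h post-meal. At 48 h, attraction to human-scented stocking plus 5% CO2 scored over 5 min, normalized to matched saline-fed controls.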
# [3] = fed 1 μM in saline, tested 48 h post-meal
compound,measurement,setting,value
"COc1ccc2c(C)nc(NC(=N)N)nc2c1 [TDI-012631, reference compound]",Difference between medians: Actual (vs. saline),[1]; fed 100 μM,-26
same,Difference between medians: Hodges-Lehmann (vs. saline),[1]; fed 100 μM,-24.68
same,Median (percent freshly blood-fed),[1]; fed 100 μM,"53.00, n=17%"
same,Significantly different (P < 0.05)? vs. saline,[1]; fed 100 μM,Yes
same,effect on blood-feeding from a live host (in words),[1]; fed at a dose of 100 μM,inhibited blood-feeding
same,Host-seeking relative to saline (test compound % host-seeking/average matched saline % host-seeking),"[2]; fed 1 μM in saline, tested 48 h post-meal, individual replicates, listed as TDI-02631",1.06 and 1
same,Attraction (relative to saline),[2]; [3],0.99
same,effect on host-seeking (in words),[2],not active
CNc1nc(NC(=N)N)nc2cc(OCc3ccccc3)c(OC)cc12 [TDI-014184],Difference between medians: Actual (vs. saline),[1]; fed 1 μM,-27.4
same,Difference between medians: Hodges-Lehmann (vs. saline),[1]; fed 1 μM,-24
same,Median (percent freshly blood-fed),[1]; fed 1 μM,"47.00, n=11%"
same,Significantly different (P < 0.05)? vs. saline,[1]; fed 1 μM,Yes
same,Percentage of females that freshly blood-fed on an anesthetized mouse,[1]; listed as TDI-04184,65% and 81% and 47% and 10% and 44% and 86% and 33% and 56% and 35%
same,effect on biting / blood-feeding from a live host (in words),[1],reduced biting behavior
same,Attraction (relative to saline),[2]; [3],0.6
Cc1nc(NC(=N)N)nc2cc(N3CCc4ccccc4C3)ccc12 [TDI-014186],Difference between medians: Actual (vs. saline),[1]; fed 1 μM,-18.25
same,Difference between medians: Hodges-Lehmann (vs. saline),[1]; fed 1 μM,-17
same,Median (percent freshly blood-fed),[1]; fed 1 μM,"54.25, n=9%"
same,Significantly different (P < 0.05)? vs. saline,[1]; fed 1 μM,Yes
same,Percentage of females that freshly blood-fed on an anesthetized mouse,[1]; listed as TDI-04186,31% and 62% and 70% and 67% and 36% and 53% and 65%
same,effect on biting / blood-feeding from a live host (in words),[1],effectively reduced biting
same,Attraction (relative to saline),[2]; [3],0.685
same,effect on host-seeking (in words),[2],reduced host-seeking behavior
